The values that follow come from patent publication US9517934B2, “Process for the generation of chlorine dioxide” (The United States of America as Represented by the …, priority 2013, dated 2016).

Series [1] has as its system Bacillus anthracis Sterne spores. In kind it is cell-based. To be noted: cotton/nylon fabric, 200, 80, or 40 ppm chlorine dioxide, 10 minutes.
The subject of series [2] is Bacillus amyloliquefaciens spores. The format is cell-based.
For series [3] the following is noted: diprotic, cited from earlier work.

Turning to `[O][Cl+][O-]` [chlorine dioxide], the “log reduction of B. anthracis Sterne spores” value in series [1] is given as 7.50 log reduction. For the same compound, the “presence of B. amyloliquefaciens spores after treatment” value in series [2] is “significantly reduced but did not completely eliminate”.

As for `N=C(N)S(=O)O` [FSA, Formamidinesulfinic acid], the pKa1 in series [3] (first dissociation) was ≤ 2. Besides, the pKa2 in series [3] (second dissociation) is reported as ~9.
